Data published in patent US8614217B2 (priority 2008, dated 2013).

Assay: log P(HCOOH) (HPLC/MS)
Assay type: physicochemical
Conditions: HCOOH (formic acid); read-out: log P(HCOOH)

Compound | chromatographic logP
O=C1c2ccccc2C(=O)N1OCc1cccc(N2C(=O)c3ccccc3C2=O)n1 [2-(6-{[(1,3-dioxo-1,3-dihydro-2H-isoindol-2-yl)oxy]methyl}pyridin-2-yl)-1H-isoindole-1,3(2H)-dione] | 2.44
Cn1nnnc1C(=NOCc1cccc(N2C(=O)c3ccccc3C2=O)n1)c1ccccc1 [2-{6-[({[(1-methyl-1H-tetrazol-5-yl)(phenyl)methylene]amino}oxy)methyl]pyridin-2-yl}-1H-isoindole-1,3(2H)-dione] | 3.04
NOCc1cccc(N)n1 [6-[(aminooxy)methyl]pyridin-2-amine] | < -0.23
Cn1nnnc1C(=NOCc1cccc(N)n1)c1ccccc1 [6-[({[(1-methyl-1H-tetrazol-5-yl)(phenyl)methylene]amino}oxy)methyl]pyridin-2-amine] | 1.14
Cn1nnnc1/C(=N\OCc1cccc(NC(=O)OCCCCCl)n1)c1ccccc1 [Example 67, 4-chlorobutyl {6-[({[(Z)-(1-methyl-1H-tetrazol-5-yl)(phenyl)methylene]amino}oxy)methyl]pyridin-2-yl}carbamate] | 3.67

Same assay, conditions: HCOOH; read-out: log P(HCOOH)

Compound | chromatographic logP
Cn1nnnc1C(=NOCc1cccc(N)n1)c1ccccc1 [6-[({[(1-methyl-1H-tetrazol-5-yl)(phenyl)methylene]amino}oxy)methyl]pyridin-2-amine] | 1.13

Same assay, conditions: HPLC on reversed phase columns, EEC directive 79/831 Annex V.A8; pH 2.7, 0.1% formic acid in water / acetonitrile gradient

Compound | log p
Cc1nnnn1C(=NOCc1csc(NC(=O)C2CCOCC2)n1)c1ccccc1 (mixture of isomers) [Example 73] | 2.49
Cc1nnnn1C(=NOCc1csc(NC(=O)COC2CC(C)CCC2C(C)C)n1)c1ccccc1 (mixture of isomers) [Example 86] | 5.48
Cn1nnnc1C(=NOCc1cccc(NC(=O)CCOc2ccccc2)n1)c1cccc(F)c1 [Example 10] | 3.64
C#CCCOC(=O)Nc1cccc(CON=C(c2cccc(F)c2)c2nnnn2C)n1 [Example 13] | 3.21
C#CCCOC(=O)Nc1cccc(CON=C(c2ccccc2)n2nnnc2C)n1 [Example 17] | 3.15
Cc1nnnn1C(=NOCc1cccc(NC(=O)OCCCCCl)n1)c1ccccc1 [Example 20] | 3.73
Cc1nnnn1C(=NOCc1cccc(NC(=O)OC2CCCCCC2)n1)c1ccccc1 [Example 21] | 4.71
C#CCCOC(=O)Nc1cccc(CON=C(c2cccc(F)c2)n2nnnc2C)n1 [Example 23] | 3.21
C#CCCCC(=O)Nc1cccc(CON=C(c2cccc(F)c2)n2nnnc2C)n1 [Example 35] | 3.15
Cc1nnnn1C(=NOCc1cccc(NC(=O)CC2CCCCC2)n1)c1ccccc1 [Example 40] | 4.12
Cc1nnnn1C(=NOCc1cccc(NC(=O)CC2CCCCC2)n1)c1cccc(F)c1 [Example 41] | 4.23
Cc1nnnn1C(=NOCc1cccc(NC(=O)CCC2CCCC2)n1)c1ccccc1 [Example 44] | 4.25
Cc1nnnn1C(=NOCc1cccc(NC(=O)CCC2CCCC2)n1)c1cccc(F)c1 [Example 45] | 4.33
Cc1nnnn1C(=NOCc1cccc(NC(=O)C(F)(F)Sc2ccccc2)n1)c1ccccc1 [Example 48] | 4.2
C#CCCCC(=O)Nc1cccc(CON=C(c2ccccc2)c2nnnn2C)n1 [Example 55] | 2.98
C=CCOC(=O)Nc1cccc(CON=C(c2ccccc2)c2nnnn2C)n1 [Example 56] | 3.21
C=CCCOC(=O)Nc1cccc(CON=C(c2ccccc2)c2nnnn2C)n1 [Example 57] | 3.51
C=C(C)OC(=O)Nc1nc(CON=C(c2ccccc2)n2nnnc2C)cs1 [Example 104] | 2.96
C=C(C)OC(=O)Nc1cccc(CON=C(c2ccccc2)n2nnnc2C)n1 [Example 107] | 3.21
Cc1nnnn1C(=NOCc1cccc(NC(=O)C2(c3ccccc3)CC2)n1)c1ccccc1 [Example 110] | 2.55
Cc1nnnn1C(=NOCc1cccc(NC(=O)C(F)(F)C(F)(F)C(F)(F)C(F)(F)C(F)(F)C(F)(F)C(F)(F)F)n1)c1ccccc1 [Example 119] | 5.93
Cc1nnnn1C(=NOCc1cccc(NC(=O)c2ccc(Cl)nc2)n1)c1ccccc1 [Example 121] | 3.15

Compound | log p
Cc1nnnn1C(=NOCc1cccc(NC(=O)CC2CC2)n1)c1ccccc1 [Example 124] | 2.94
Cc1nnnn1C(=NOCc1cccc(NC(=O)CO[C@@H]2C[C@H](C)CC[C@H]2C(C)C)n1)c1ccccc1 [Example 126] | 5.95
Cc1nnnn1C(=NOCc1cccc(NC(=O)C2CCC(=O)O2)n1)c1ccccc1 (stereo not drawn) [Example 130] | 2.44
Cc1nnnn1C(=NOCc1cccc(NC(=O)COCc2ccccc2)n1)c1ccccc1 [Example 144] | 3.73
COC(=O)CCCCC(=O)Nc1cccc(CON=C(c2ccccc2)n2nnnc2C)n1 [Example 145] | 2.86
CCOC(=O)CCCC(=O)Nc1cccc(CON=C(c2ccccc2)n2nnnc2C)n1 [Example 148] | 2.98
Cc1nnnn1C(=NOCc1cccc(NC(=O)CSCc2ccccc2)n1)c1ccccc1 [Example 151] | 3.73
Cn1nnnc1C(=NOCc1csc(NC(=O)CC2CC2)n1)c1cccc(F)c1 [Example 170] | 2.98
CC1CCC(C(C)C)C(OCC(=O)Nc2nc(CON=C(c3cccc(F)c3)c3nnnn3C)cs2)C1 (stereo not drawn) [Example 172] | 5.47
COCCOCC(=O)Nc1nc(CON=C(c2cccc(F)c2)c2nnnn2C)cs1 [Example 183] | 2.68
COCCOCCOCC(=O)Nc1nc(CON=C(c2cccc(F)c2)c2nnnn2C)cs1 [Example 186] | 2.66
Cn1nnnc1C(=NOCc1csc(NC(=O)C(F)(F)C(F)(F)C(F)(F)F)n1)c1cccc(F)c1 [Example 192] | 3.75
Cn1nnnc1C(=NOCc1csc(NC(=O)CSCc2ccccc2)n1)c1cccc(F)c1 [Example 194] | 3.68
Cn1nnnc1C(=NOCc1csc(NC(=O)CCCOc2ccccc2)n1)c1cccc(F)c1 [Example 196] | 3.7
CC(=O)OCCCCOC(=O)Nc1nc(CON=C(c2cccc(F)c2)c2nnnn2C)cs1 [Example 198] | 3.15
Cn1nnnc1C(=NOCc1csc(NC(=O)CCC2CCCCC2)n1)c1ccccc1 [Example 206] | 4.3
Cn1nnnc1C(=NOCc1cccc(NC(=O)c2cccs2)n1)c1ccccc1 [Example 214] | 3.21
Cn1nnnc1C(=NOCc1cccc(NC(=O)CSCc2ccccc2)n1)c1ccccc1 [Example 218] | 3.73
Cn1nnnc1C(=NOCc1cccc(NC(=O)CCCc2ccsc2)n1)c1ccccc1 [Example 221] | 3.7
Cc1nnnn1C(=NOCc1csc(NC(=O)CCCC2CCCCC2)n1)c1ccccc1 [Example 229] | 4.82
Cn1nnnc1C(=NOCc1csc(NC(=O)Cc2ccsc2)n1)c1cccc(F)c1 [Example 233] | 3.21
Cn1nnnc1C(=NOCc1csc(NC(=O)OCC(Cl)(Cl)Cl)n1)c1ccccc1 [Example 245] | 3.7

Same assay, conditions: HPLC on reversed phase columns, EEC directive 79/831 Annex V.A8; pH 2.7, 0.1% formic acid in water / acetonitrile gradient; read-out: log p

Compound | chromatographic logP
C#CCCCC(=O)Nc1cccc(CON=C(c2ccccc2)n2nnnc2C)n1 [Example 34] | 3.04
Cn1nnnc1/C(=N\OCc1cccc(NC(=O)OCCCCCl)n1)c1ccccc1 [Example 67, 4-chlorobutyl {6-[({[(Z)-(1-methyl-1H-tetrazol-5-yl)(phenyl)methylene]amino}oxy)methyl]pyridin-2-yl}carbamate] | 3.67

Same assay, conditions: HPLC on reversed phase columns, EEC directive 79/831 Annex V.A8; pH 2.7 with 0.1% formic acid in water and acetonitrile

Compound | log p
CC(Oc1ccc(F)cc1)C(=O)Nc1cccc(CON=C(c2ccccc2)c2nnnn2C)n1 (mixture of isomers) [Example 262] | 3.79
C=CCCOC(=O)Nc1cccc(CON=C(c2ccccc2C)c2nnnn2C)n1 (mixture of isomers) [Example 315] | 3.65
C#CCCOC(=O)Nc1cccc(CON=C(c2ccccc2Cl)c2nnnn2C)n1 (mixture of isomers) [Example 372] | 3.21
Cn1nnnc1C(=NOCc1cccc(NC(=O)CCOc2ccccc2)n1)c1ccccc1Cl (mixture of isomers) [Example 373] | 3.63
Cn1nnnc1C(=NOCc1csc(NC(=O)COc2ccccc2Cl)n1)c1ccccc1 [Example 247] | 3.61
Cn1nnnc1C(=NOCc1csc(NC(=O)c2cccc(Cl)c2)n1)c1ccccc1 [Example 248] | 3.73
Cn1nnnc1C(=NOCc1csc(NC(=O)COc2cccc(Cl)c2)n1)c1ccccc1 [Example 249] | 3.7
Cn1nnnc1C(=NOCc1csc(NC(=O)COc2ccc(Cl)cc2)n1)c1ccccc1 [Example 250] | 3.68
CCCCc1ccc(C(=O)Nc2nc(CON=C(c3ccccc3)c3nnnn3C)cs2)cc1 [Example 268] | 4.68
CCOc1ccc(C(=O)Nc2nc(CON=C(c3ccccc3)c3nnnn3C)cs2)cc1 [Example 271] | 3.64
Cn1nnnc1C(=NOCc1csc(NC(=O)CC23CC4CC(CC(C4)C2)C3)n1)c1ccccc1 [Example 278] | 4.69
CC1CCC(C(C)C)C(OCC(=O)Nc2nc(CON=C(c3ccccc3)c3nnnn3C)cs2)C1 (stereo not drawn) [Example 284] | 5.39
COCCOCC(=O)Nc1nc(CON=C(c2ccccc2)c2nnnn2C)cs1 [Example 286] | 2.54
Cn1nnnc1C(=NOCc1csc(NC(=O)COc2ccccc2-c2ccccc2)n1)c1ccccc1 [Example 289] | 4.32
COC(=O)CCCCC(=O)Nc1nc(CON=C(c2cccc(F)c2)c2nnnn2C)cs1 [Example 298] | 2.94
COCCOC(=O)Nc1nc(CON=C(c2cccc(F)c2)c2nnnn2C)cs1 [Example 301] | 2.66
Cc1ccc(C(=O)Nc2cccc(CON=C(c3ccccc3)c3nnnn3C)n2)cc1 [Example 306] | 3.65
Cc1ccccc1C(=O)Nc1cccc(CON=C(c2ccccc2)c2nnnn2C)n1 [Example 307] | 3.5
CCOc1cccc(C(=O)Nc2cccc(CON=C(c3ccccc3)c3nnnn3C)n2)c1 [Example 313] | 3.79
COc1ccccc1C(=O)Nc1nc(CON=C(c2ccccc2)c2nnnn2C)cs1 [Example 322] | 3.5
Cn1nnnc1C(=NOCc1csc(NC(=O)c2ccccc2OC(F)(F)F)n1)c1ccccc1 [Example 325] | 3.61
Cc1ccccc1C(=O)Nc1nc(CON=C(c2ccccc2)c2nnnn2C)cs1 [Example 327] | 3.41
Cn1nnnc1C(=NOCc1cccc(NC(=O)c2ccccc2OC(F)(F)F)n1)c1cccc(F)c1 [Example 328] | 3.9
